This is an account of results in publication PMC6883804, “Cathelicidin Contributes to the Restriction of Leishmania in Human Host Macrophages” (Frontiers in Immunology, 2019).

In one assay the test system is cathelicidin. Put plainly: Cathelicidin protein expression in hMDM1 by western blot densitometry. The format is cell-based, human. Conditions: hMDM1, 100 nM, western blot densitometry normalized to ß-actin and untreated control = 1, mean ± SD, n = 5-7. On the procedure:
(§1) Human peripheral mononuclear cells (PBMCs) were isolated from buffy coats (DRK-Blutspendedienst Hessen GmbH) by passage over a Leukocyte Separation Medium gradient as described previously ([30]). Monocytes, obtained by plastic adherence or CD14 selection were incubated either with 10 ng/ml rhGM-CSF (Leukine® Sanofi-Aventis, Bridgewater, US) or 30 ng/ml rhM-CSF (R&D Systems, Abingdon, UK) for a period of 5 to 7 d at 37°C, 5% CO2 to generate hMDM1 or hMDM2, respectively. Cells were generated in 6 w plates or in 25 cm^2 culture flasks and were detached by cooling cells down on ice, following detachment with a cell scraper. Experimental data, conducted with monocytes obtained from human donors, are depicted as dot plots, in which each dot presents data from a single donor.
(§2) The cells were co-incubated with stationary phase Lm or Lae promastigotes or axenic amastigotes at a MOI ratio of 1:10 in RPMI 1640 supplemented with 10% heat inactivated fetal calf serum, 50 μM β-mercaptoethanol (all from Sigma Aldrich), 2 mM L-glutamine, 100 U/ml penicillin and 100 μg/ml streptomycin, 10 mM HEPES (all from Biochrom) for 3 h at 37°C in a humidified atmosphere in a CO2 incubator. Extracellular parasites were removed by centrifugation and washing the cells. During infection experiments, cathelicidin expression was induced by incubation of hMDM with 100 nM calcitriol or calcipotriol for 24 h. […] The LmdsRed promastigotes increase their fluorescence intensity when transforming into amastigotes, which enables the quantification of the parasite propagation by measuring the dsRed mean fluorescence intensity using FACS ([62], [63]).
A total number of 0.5 × 10^6 hMDM were lysed in Lämmli-Buffer (A. bidest supplemented with 0.7 M Glycerol, 1.7% SDS, 0.1 M DTT and 30 μM Bromphenol blue), denaturated at 95°C for 10 min and loaded onto a 15% SDS-polyacrylamide gel. […] The membrane was washed once more and the protein bands were detected using an ECL substrate (GE Healthcare, Buckinghamshire, United Kingdom). Using ImageJ, densitometry analysis was performed to quantify the intensities of the protein bands.
For orientation: Immunoblotting shows a protein as a band on a membrane.

The next assay concerns CAMP. The assay can be described thus: CAMP gene expression in hMDM1 by qRT-PCR after vitamin D derivatives. Type of assay: cell-based, human. Conditions: hMDM1, 100 nM, after 6 days (late), qRT-PCR normalized to GAPDH and to untreated control = 1, mean ± SD, n = 1-5. On the procedure: as §1, with “Experimental data, conducted with monocytes obtained from human donors, are depicted as dot plots, in which each dot presents data from a single donor.” left out
as §2, with “incubator.” for “incubator. Extracellular parasites were removed by centrifugation and washing the cells. During infection experiments, cathelicidin expression was induced by incubation of hMDM with 100 nM calcitriol or calcipotriol for 24 h.”, “[63]). […]” for “[63]).”
(In general: Real-time PCR tracks product formation cycle by cycle.)

Assay [1] has as its system L. major dsRed in hMDM1. The assay can be described thus: Infection rate (% dsRed+ hMDM1) by flow cytometry. The format is cell-based, Leishmania major. Conditions: hMDM1 pretreated 24 h with 100 nM, infected with Lm dsRed MOI 10, flow cytometry. As for the experimental part: as §2, with “h. For transgenic LmdsRed flow cytometry was used to analyze infection rates.” for “h.”
(§3) • FACS analysis of Leishmania parasites was performed as described Wenzel et al. ([61]). […] The cells were washed in FACS-Buffer and analyzed by flow cytometry. • To assess parasite survival, Leishmania (dsRed^+) infected hMDM were washed in FACS-buffer and infection rate (% of dsRed^+ hMDM) and the parasite load (mean fluorescent intensity) were assessed by flow cytometry. […] Data were analyzed by BD FACS Diva or FlowJo software (Treestar).

Assay [2] has as its system L. major dsRed in hMDM1. Put plainly: Parasite survival (dsRed MFI) in infected hMDM1 by flow cytometry. The format is cell-based, Leishmania major. Conditions: hMDM1 pretreated 24 h with 100 nM, infected with Lm dsRed MOI 10, flow cytometry, mean ± SD; control 1.00 ± 0.46. On the procedure: as §2, with “h. For transgenic LmdsRed flow cytometry was used to analyze infection rates.” for “h.”
as §3
For orientation: In flow cytometry, cells or beads pass a laser one at a time.

For a further assay, the system named is Leishmania promastigotes. The assay can be described thus: Parasite morphology by microscopy after hrLL37 treatment. The format is cell-based. Conditions: microscopy (Figure 2C), as described for apoptotic parasites. On the procedure:
To assess apoptosis, Lm and Lae promastigotes, which resided in a logarithmic growth phase, were treated with 30 and 60 ng/ml hrLL37 (PeptaNova GmbH, Sandhausen, Germany) for 72 h. Leishmania axenic amastigotes were treated with 10 and 100 ng/ml hrLL37 or 25 μM staurosporine for 24 h. Subsequently, DNA fragmentation was assessed by flow cytometry or immunofluorescence imaging using an in situ cell-death detection kit, based on terminal deoxynucleotidyl transferase dUTP nick end labeling (TUNEL), as described ([30]). Exposure of phosphatidylserine (PS) was assessed by AnnexinA5 binding using flow cytometry.

Assay [3] has as its system Leishmania major (Lm). The assay can be described thus: DNA fragmentation (TUNEL) by flow cytometry, L. major. Type of assay: cell-based. As to conditions: mean ± SD. As for the experimental part: (§4) L. major (Lm, MHOM_IL_81_FEBNI), L. aethiopica (Lae, MHOM/ET/72/L100 Z14), and the transgenic Lm dsRed (construct pSSUint-DsRed was a kind gift from Dr. Toni Aebischer, Robert Koch Institute, Berlin, Germany) and Lae dsRed promastigotes were cultured at 27°C in biphasic Novy-Nicolle-McNeal blood agar medium as described ([60]). Of note, all viable promastigotes express the transgenic dsRed protein. Upon transformation into the amastigote life stage, a 1 log-scale higher dsRed fluorescence is present, due to the high-level expression in the amastigote life stage ([31]). Logarithmic-phase or stationary-phase promastigotes were obtained after 2 (log-phase) or 7 (stat-phase) days of culture, respectively. Lm and Lae axenic amastigotes were generated by incubating log-phase promastigotes in pH 5.5 at 33°C and isolated using a discontinuous Histopaque® 1119 (Sigma Aldrich, Germany) density gradient as described ([61]).
(§5) To assess apoptosis, Lm and Lae promastigotes, which resided in a logarithmic growth phase, were treated with 30 and 60 ng/ml hrLL37 (PeptaNova GmbH, Sandhausen, Germany) for 72 h. […] Subsequently, DNA fragmentation was assessed by flow cytometry or immunofluorescence imaging using an in situ cell-death detection kit, based on terminal deoxynucleotidyl transferase dUTP nick end labeling (TUNEL), as described ([30]). Exposure of phosphatidylserine (PS) was assessed by AnnexinA5 binding using flow cytometry.
(§6) • FACS analysis of Leishmania parasites was performed as described Wenzel et al. ([61]). Apoptosis, among parasites, was assessed by staining with AnnexinA5-Alexa Fluor 647 using a Ca^2+ rich buffer. • For phenotyping hMDM by flow cytometry, hMDM were washed in FACS-Buffer (PBS supplemented with 1% FCS, 1% human serum and 1% BSA) and incubated with anti-CD14-FITC (1:100, IgG2b), anti-CD163-PE (1:50, IgG1, GHI/61), or anti-MHC II-PerCP (1:100, IgG2a, L243) for 30 min on ice in the dark. […] Upon analyzing, at least 10,000 events (human cells) or 20,000 (parasites) were recorded using a BD LSR II flow cytometer (BD Bioscience, Heidelberg, Germany). […]

The test system of assay [4] is Leishmania major (Lm). The assay can be described thus: Phosphatidylserine exposure (AnnexinA5 binding) by flow cytometry, L. major. Type of assay: cell-based. Conditions: mean ± SD; for AnnexinA5-binding parasites: Lm log-phase promastigotes, 72 h, untreated 14.7 ± 11.1%. As for the experimental part: as §4, §5, §6
Assay [5] has as its system L. aethiopica (Lae). The assay can be described thus: Phosphatidylserine exposure (AnnexinA5 binding) by flow cytometry, L. aethiopica. The format is cell-based, Leishmania aethiopica. Conditions: mean ± SD; for AnnexinA5-binding parasites: Lae log-phase promastigotes, 72 h, untreated 8.0 ± 4.5%. On the procedure: as §4, §5, §6
The test system of assay [6] is L. aethiopica (Lae). Put plainly: DNA fragmentation (TUNEL) by flow cytometry, L. aethiopica. Type of assay: cell-based, Leishmania aethiopica. As for the experimental part:
as §4, §5, §6

Where [7] appears, read: higher of two hrLL37 concentrations (60 ng/ml per methods).
Setting [8] is: lower of two hrLL37 concentrations (30 ng/ml per methods).

Turning to `C=C1/C(=C\C=C2/CCC[C@]3(C)[C@@H]([C@H](C)CCCC(C)(C)O)CC[C@@H]23)C[C@@H](O)C[C@@H]1O` [CCT, 1α, 25-dihydroxyvitamin D3], the figures for the “cathelicidin protein expression, fold increase” value in the assay with cathelicidin (early (24 h)) and in the assay on cathelicidin (late (6 d)) were 25.5 ± 22.2 fold and 152.5 ± 149.6 fold, respectively. The “CAMP gene expression, fold increase” value with CAMP was determined as 587 ± 173 fold. Further, the “percentage of hMDM1 infected cells (infection rate)” value in the assay on L. major dsRed in hMDM1 [1] was “did not change significantly”. Besides, the “L. major parasite survival (mean fluorescent intensity of dsRed, relative to control)” value with L. major dsRed in hMDM1 [2] came out at 0.60 ± 0.25.

Consider `C=C1/C(=C\C=C2/CCC[C@]3(C)[C@@H]([C@H](C)/C=C/[C@@H](O)C4CC4)CC[C@@H]23)C[C@@H](O)C[C@@H]1O` [CPT, calcipotriol], for which the “cathelicidin protein expression, fold increase” value in the assay on cathelicidin (late (6 d)) is 101.9 ± 125.4 fold. In the assay on CAMP, the “CAMP gene expression, fold increase” value stood at 282 fold. Further, in the assay on L. major dsRed in hMDM1 [1], the “percentage of hMDM1 infected cells (infection rate)” value is listed as “did not change significantly”. Moreover, the “L. major parasite survival (mean fluorescent intensity of dsRed, relative to control)” value with L. major dsRed in hMDM1 [2] is 0.74 ± 0.23.

As to “hrLL37: human recombinant LL37 (PeptaNova GmbH), the hCAP18-derived amphipathic α-helical antimicrobial peptide”, the “Morphology of treated parasites” value in the assay with Leishmania promastigotes was “round-shaped morphology”. In addition, the TUNEL positivity was 12.1 ± 2.1% with Leishmania major (Lm) [3] (Lm axenic amastigotes, rhLL37 (10 and 100 ng/ml in methods, concentration of this value not stated), 24 h, not significantly increased, untreated 12.0 ± 6.6%); 22.9 ± 3.1% in the assay on Leishmania major (Lm) [3] (Lm log-phase promastigotes, higher of two increasing hrLL37 concentrations (60 ng/ml per methods), 72 h, untreated 6.24 ± 1.9%); 20.2 ± 0.7% with Leishmania major (Lm) [3] (Lm log-phase promastigotes, lower of two increasing hrLL37 concentrations (30 ng/ml per methods), 72 h, untreated 6.24 ± 1.9%); 87.0 ± 6.1% in the assay with L. aethiopica (Lae) [6] (Lae axenic amastigotes, hrLL37 (10 and 100 ng/ml in methods, concentration of this value not stated), 24 h, mean ± SD, untreated 32.3 ± 13.3%); 21.1 ± 2.3% in the assay with L. aethiopica (Lae) [6] (Lae log-phase promastigotes, higher of two increasing hrLL37 concentrations (60 ng/ml per methods), 72 h, mean ± SD of at least 3 experiments, untreated 13.3 ± 1.2%); 15.5 ± 8.3% with L. aethiopica (Lae) [6] (Lae log-phase promastigotes, lower of two increasing hrLL37 concentrations (30 ng/ml per methods), 72 h, mean ± SD of at least 3 experiments, untreated 13.3 ± 1.2%). In addition, the AnnexinA5 binding with Leishmania major (Lm) [4] (Lm axenic amastigotes, rhLL37 (10 and 100 ng/ml in methods, concentration of this value not stated), 24 h, minor but significant increase, untreated 3.3 ± 2.3%) is listed as 8.3 ± 3.0%; in the assay with L. aethiopica (Lae) [5] (Lae axenic amastigotes, hrLL37 (10 and 100 ng/ml in methods, concentration of this value not stated), 24 h, untreated 18.7 ± 6.1%), 71.3 ± 12.6%. In addition, the AnnexinA5-binding parasites with Leishmania major (Lm) [4] (setting [7]) is recorded as 74.8 ± 23.2%; in the assay on Leishmania major (Lm) [4] (setting [8]), 51.5 ± 20.5%; in the assay on L. aethiopica (Lae) [5] (setting [7]), 31.3 ± 26%; in the assay with L. aethiopica (Lae) [5] (setting [8]), 27.1 ± 14.3%.
